Values quoted from earlier work as cited in patent US6472403B2, “αV integrin receptor antagonists” (Merck & Co., Inc., priority 2000, dated 2002).

Test system: postmenopausal osteoporotic women
Conditions: median of 22 months of treatment

## CC[C@H](C)[C@H](NC(=O)[C@H](CCC(=O)O)NC(=O)[C@H](CO)NC(=O)[C@@H](NC(=O)[C@@H](N)CO)C(C)C)C(=O)N[C@@H](CCC(N)=O)C(=O)N[C@@H](CC(C)C)C(=O)N[C@@H](CCSC)C(=O)N[C@@H](Cc1cnc[nH]1)C(=O)N[C@@H](CC(N)=O)C(=O)N[C@@H](CC(C)C)C(=O)NCC(=O)N[C@@H](CCCCN)C(=O)N[C@@H](Cc1cnc[nH]1)C(=O)N[C@@H](CC(C)C)C(=O)N[C@@H](CC(N)=O)C(=O)N[C@@H](CO)C(=O)N[C@@H](CCSC)C(=O)N[C@@H](CCC(=O)O)C(=O)N[C@@H](CCCN=C(N)N)C(=O)N[C@H](C(=O)N[C@@H](CCC(=O)O)C(=O)N[C@@H](Cc1c[nH]c2ccccc12)C(=O)N[C@@H](CC(C)C)C(=O)N[C@@H](CCCN=C(N)N)C(=O)N[C@@H](CCCCN)C(=O)N[C@@H](CCCCN)C(=O)N[C@@H](CC(C)C)C(=O)N[C@@H](CCC(N)=O)C(=O)N[C@@H](CC(=O)O)C(=O)N[C@H](C(=O)N[C@@H](Cc1cnc[nH]1)C(=O)N[C@@H](CC(N)=O)C(=O)N[C@@H](Cc1ccccc1)C(=O)O)C(C)C)C(C)C [hPTH(1-34)]
  reduction in nonvertebral fractures: 54%
  reduction in spine fractures: ≥ 65%
